From patent US20230048338A1, “NOVEL CELLULAR DELIVERY METHODS” (PYC Therapeutics Limited, priority 2019, published 2023)

How the values were obtained:
[1] = test system: GFAP; test: GFAP in vivo toxicity assay (ddPCR of Gfap mRNA after intravitreal injection); conditions: 5 days, mouse; for GFAP score (± SD): intravitreal 1.6 ug per eye, Gfap mRNA normalised to housekeeping genes
From the text: Glial fibrillary acidic protein (GFAP) is an intermediate-filament cytoskeletal protein. Levels of GFAP are strongly influenced by injury or stress in some cell types and GFAP expression has become an important marker of injury in the central nervous system. In the eye, Muller glia cells normally express low levels of GFAP which increases considerably following retinal injury.
Expression of GFAP mRNA was quantified via amplification of cDNA obtained as part of the in vivo Smn efficacy assay described above. ddPCR was performed using BioRad droplet generator and reader (QX200 DG8) and thermocyclers (T100), specific probes for murine Gfap (dMmuCPE5116126) and housekeeping genes Gapdh, Eef1a1 and Rp127 (dMmuCPE5195283, dMmuCPE5101732 and dMmuCPE5197083) as well as ddPCR Master mix for Probes (#1863024) and other ddPCR specific consumables from BioRad (#1863005, 12001925, 1863004, 1864007).
Assay results were obtained by BioRad ddPCR software in copies/uL. This was then normalised to housekeeping genes for comparison across experiments.

[2] = test system: ARPE-19 cells; test: In vitro SMN1 viability assay (CellTiter-Glo); assay type: cell-based; conditions: for Percent Mean Viability (± SD): 48 h
Experimental: (§1) Cells were seeded in 96-well plates (ARPE-19, 4×10^3 cells/well) in complete medium (DMEM/F12 1:1, 10% FCS; 10 mM HEPES, 1× GlutaMAX™, Pen/Strep 100 u/ml; Gibco, Thermo Fisher Scientific, Waltham, Mass., USA). Cells were incubated overnight (37° C., 5% CO2) to allow for cell adherence. On the day of the assay, media was aspirated and replaced with CPP-PMO or PMO only diluted in treatment media (DMEM/F12 1:1, 10% FCS; 10 mM HEPES, 1× GlutaMAX™, Pen/Strep 100 u/ml; Gibco, Thermo Fisher Scientific, Waltham, Mass., USA) at various concentrations (32, 16, 8, 4, 2, and 1 uM), followed by incubation (37° C., 5% CO2) for 24 h. Fresh media 1:1 was added the following day and cells returned to the incubator for a further 24 h.
48 h post-treatment, viability of the cells was measured using the commercial CellTiter-Glo® Luminescent Cell Viability Assay (Promega, Australia). In brief the CellTiter-Glo reagent lyses the cells and generates a luminescent signal that is proportional to the amount of ATP present, which in turn is directly proportional to the number of live cells present in culture. All assays were conducted with a known cytotoxic agent, melittin (Renata et al. 2007), and cell only control. Cell viability was used to determine the level of toxicity caused by the CPP-PMO conjugates, where high viability equates to low toxicity, and low viability with high toxicity, respectively.

[3] = test system: Smn gene exon 7; test: In vivo Smn efficacy assay (IVT administration), exon-7 skipping in ocular tissues; conditions: mouse; for Percent exon7-skipped SMN1 transcript (± SD): intravitreal 1.6 ug per eye
From the text: The in vitro SMN1 efficacy assay described in Example 1 is equally applicable to the in vivo setting, given the ubiquitous distribution of the Smn gene in the mouse body, Smn being the mouse orthologue of the human SMN1. The use of natural L-peptides is undesirable in the in vivo setting, due to presence of a vast array of proteases in the body. To adequately assess the peptide's cell-penetrating capacity, peptides were synthesized as either mixed-L/D amino acid containing peptides, where all basic residues were D-amino acids, or as full-D amino acid containing peptides. Both approaches have been established to protect peptides from proteolytic degradation during systemic administration into animals.
The ability of CPP-PMOs to deliver the Smn cargo in vivo to the RPE cell later in the eye was assessed by administration into the vitreous humor of mice and measuring the change in Smn transcript levels in the retina, RPE and choroid cell layers after 5, 7, 21 and 28 days. The CPP of the present invention (SEQ ID NO: 1) and control CPP Pip6a (SEQ ID NO: 3), conjugated to an Smn PMO (SEQ ID NO: 2), were administered by intravitreal injection at 1.6 ug (0.5 ul volume) per eye. At the desired time point post treatment, the animals were culled and eyes were dissected, tissue layers homogenised and RNA extracted using the same protocol as per Example 1.
The efficiency of delivery and function to the various organs was determined by measuring the change in Smn RNA transcript from full-length to an exon-7 skipped fragment (D7-Smn) RNA transcript, using RNA extraction, cDNA generation and PCR using Smn-specific primers. Efficiency was interpreted by the higher the percentage D7-Smn transcript, the better the delivery to the tissue by the CPP.
Exon skipping assays and RT-PCR detection were performed according to published protocols (Mann et al 2002, Gene Med, 4, 644-654).
Mice (C576/6; age 7 weeks) were sourced from Australian BioResources (ABR). Selected CPP-PMOs were injected into the vitreous at 1.6 ug (0.5 ul) per eye, with one to three mice per treatment group.
48 h post-treatment, mice were culled, and the following ocular tissues harvested; retina, RPE layer or RPE/choroid combined. The tissues were homogenised, and RNA was obtained using commercial RNA extraction kits according to manufacturer's protocol (Bio-Rad Aurum total RNA 96 kit; Quantify RNA yield; Quant-iT RNA BR kit).
(§2) Extracted RNA was purified, quantified and then diluted to 10 ng/ul. cDNA was produced using a commercial reverse transcription kit according to the manufacturers protocol (BioRad iScript). The produced cDNA was used as a template with primers designed to amplify region of interest, to amplify the DNA. The efficacy of exon skipping was determined by quantifying full length (FL Smn) and exon-7 skipped fragment (D7-Smn) of the Smn gene (LC-GX Nucleic Acid Analyzer) and calculating a percentage. The higher the percentage of D7-Smn DNA, the greater the CPP delivery efficiency.

[4] = test system: exon 7 of the SMN1 gene; test: In vitro SMN1 efficacy assay (exon-7 skipping, ARPE-19 cells); assay type: cell-based, human; conditions: for Percent exon7-skipped SMN1 transcript (± SD): 48 h post treatment
Experimental: Potential CPP peptides were linked to a […] that targets exon 7 of the SMN1 gene (Flynn et al 2018), using strain-promoted (SPAAC) click chemistry (Agard et al 2004, Dommerholt et al. 2016). Peptide-PMO conjugates were incubated on ARPE-19 cells for 2 days in full media. Efficacy of internalization was measured by the degree of exon7 skipping in the SMN1 gene RNA transcript through RNA extraction. Peptide-PMOs with % d7 transcript higher than the PMO treatment alone were considered CPPs.
Using the SMN1 gene, we built an exon-skipping assay targeting the SMN1 gene (Flynn et al 2018) at exon-7 using a phosphorodiamidate morpholino oligonucleotide (PMO) conjugated to different CPPs. This assay was used to identify CPPs that could efficiently deliver PMO cargo to the nucleus and effect exon-skipping of SMN1. Efficiency of delivery and function was determined by measuring the change in D7-SMN1 RNA transcript, using RNA extraction, cDNA generation and PCR using SMN1-specific primers. Efficiency was interpreted by the higher the percentage D7-SMN1 transcript, the better the delivery to the nucleus by the CPP.
Exon skipping assays and PCR detection were performed according to published protocols (Mann et al 2002, Gene Med, 4, 644-654).
Retinal pigment epithelial cells (ARPE-19) immortalized cells were treated with various concentrations (4 uM, 2 uM, 1 uM, in duplicate) of CPP-PMO conjugate and SMN1 transcript levels assessed 48 h post treatment by RNA extraction and purification, followed by cDNA generation and PCR.
as §1, with “24-well” for “96-well”, “2.5×10^4” for “4×10^3”, “USA),” for “USA) at various concentrations (32, 16, 8, 4, 2, and 1 uM),”
48 h post-treatment, the cell media was carefully aspirated, and cells rinsed with PBS. RNA from the treated cells was obtained using commercial RNA extraction kits according to manufacturer's protocol (Bio-Rad Aurum total RNA 96 kit; Quantify RNA yield; Quant-iT RNA BR kit).
as §2, with “SMN1)” for “Smn)”, “(D7-SMN1)” for “(D7-Smn)”, “SMN1” for “Smn”, “D7-SMN1” for “D7-Smn”, “efficiency” for “efficiency.”

Row | Substance | GFAP score (± SD) [1] | Percent Mean Viability (± SD) ([2]; 2 uM) | Percent Mean Viability (± SD) ([2]; 4 uM) | Percent Mean Viability (± SD) ([2]; 8 uM) | Percent Mean Viability (± SD) ([2]; 16 uM) | Percent Mean Viability (± SD) ([2]; 32 uM) | Percent exon7-skipped SMN1 transcript (± SD) ([3]; RPE/choroid, 5 days) | Percent exon7-skipped SMN1 transcript (± SD) ([3]; RPE/choroid, 7 days) | Percent exon7-skipped SMN1 transcript (± SD) ([3]; retina, 5 days) | Percent exon7-skipped SMN1 transcript (± SD) ([3]; retina, 28 days) | Percent exon7-skipped SMN1 transcript (± SD) ([4]; 1 uM) | Percent exon7-skipped SMN1 transcript (± SD) ([4]; 2 uM) | Percent exon7-skipped SMN1 transcript (± SD) ([4]; 4 uM) | GFAP expression in vivo (in words) ([1]; intravitreal) | Cell viability relative to PMO alone (less deleterious) ([2]; 32 uM for 48 hours) | Truncated D7-Smn transcript in vivo compared with Smn PMO alone (in words) ([3]; intravitreal, RPE/choroid and retina) | Efficiency in inducing SMN1 exon-skipping relative to SMN1 PMO only treatment ([4]; 2 uM)
1 | ACTTTCCTTCTTTTTTATTTTGTCT (PMO, 5' cyclooctyne handle, chemistry not fully specified; listed as Homo sapiens) [SEQ ID NO: 2, phosphorodiamidate morpholino oligonucleotide (PMO) targeting exon 7 of SMN1, with 5' cyclooctyne handle; unconjugated cargo control] | 0.0262 | 99.41% | 100.01% | 99.11% | 97.42% | 93.61% | 0.00% | 0.00% | 0.00% | 0.77% | 16.59 (± 4.07) Percent | 17.35 (± 4.97) Percent | 18.34 (± 5.99) Percent |  |  |  | 
2 | rrsrtaraGrpGrnssrpsapr[azk]ACTTTCCTTCTTTTTTATTTTGTCT (chain 1 RRSRTARAGRPGRNSSRPSAPR; chain 2 actttccttcttttttattttgtct; azidolysine SPAAC click linkage; listed as Homo sapiens) [SEQ ID NO: 1[azk]2] | 0.0324 | 102.61% | 105.23% | 103.34% | 102.52% | 98.20% | 13.05% | 12.22% | 19.61% | 13.71% | 19.44 (± 3.82) Percent | 21.38 (± 2.10) Percent | 29.99 (± 3.96) Percent | very little GFAP expression | 1.05 fold | creates more truncated D7-Smn transcript than the Smn PMO alone | 1.2 fold
3 | RXRRBRRXRYQFLIRXRBRXRB[azk]ACTTTCCTTCTTTTTTATTTTGTCT [SEQ ID NO: 3[azk]2] | 0.1637 |  |  |  |  |  | 9.94% | 6.70% | 21.66% | 3.39% |  |  |  |  |  |  | 
